Two compounds from patent US20240208898A1, “ENAMINE N-OXIDES: SYNTHESIS AND APPLICATION TO HYPOXIA-RESPONSIVE PRODRUGS AND IMAGING AGENTS” (DANA-FARBER CANCER INSTITUTE, INC., priority 2021, published 2024) can be followed below.

SMILES strings stand for the structures. “Also recorded” adds a separate entry of the source.

The subject of this assay is BxPC-3 xenografts. Nature of the assay: Immunofluorescence tissue staining of tumor slices. It is filed as in vivo, mice. The protocol: All animal experiments were performed according to procedures and protocols approved by the Dana-Farber Cancer Institute Institutional Animal Care and Use Committee. Bx-PC3 cells were grown to confluency in antibiotic-free RPMI supplemented with 10% FBS, trypsinized, and washed three times with ice cold PBS (50 mL). Cells were resuspended in PBS at a concentration of 1.0×10^7 cells per 100 μL. 8-week old, female, homozygous NU/J mice (Jackson Laboratory) were subcutaneously injected with 1.0×10^7 Bx-PC3 cells over the right hind flank under isoflurane anesthesia. Experiments were performed when tumors reached 1000 mm^3 in size.
Mice were intraperitoneally injected with a 200 μL bolus of 25.8 mM pimonidazole and enamine N-oxide probe in 0.9% saline. Two min prior to sacrifice, mice were intravenously injected with 15 mg/kg Hoechst 33342 in 100 μL of PBS. After 1 hour, mice were sacrificed by cervical dislocation under isoflurane anesthesia. Tumors were resected and fixed in 4% paraformaldehyde in PBS for 24 hours at 4° C. with shaking. Tumors were then stored in 70% ethanol/water and submitted to the Rodent Histopathology Core at the Dana-Farber/Harvard Cancer Center for paraffin sectioning and H&E staining on glass slides. Paraffin embedded slices on glass slides were first rehydrated by successively immersing in xylenes twice for 10 minutes, 100% ethanol twice for 10 minutes, 95% ethanol/water once for 5 minutes, 70% ethanol/water for 5 minutes, 50% ethanol/water for 5 minutes, water three times for 20 seconds, and ice cold PBS+0.3% Triton X-100 once for 10 minutes. For slices to be stained by HIF1α and CD31, slides were then incubated at 90° C. in 10 mM citrate, pH 6.0 for 15 minutes. After 15 minutes, the solution was removed from heat and allowed to cool to room temperature. […] Slices were then imaged using a widefield fluorescence inverted microscope (Nikon Ti Eclipse) at the Dana-Farber Confocal and Light Microscopy Core according to the settings listed in the “General biological instrumentation” section.

With `C#CCCCCC(F)/C=C/[N+]([O-])(CC)CC` (stereo not drawn) [probe 39, (E)-N,N-diethyl-3-fluoronon-1-en-8-yn-1-amine oxide], the “localization in tumor tissue slices vs CD31 endothelial cell marker” value (intraperitoneal, CD31, DAPI) is recorded as “vasculature is primarily localized in regions distal to regions that are labeled well by enamine N-oxide 39 staining”. Moreover, the “localization in tumor tissue slices vs hypoxia markers” value (intraperitoneal, markers GLUT1, HIF1α, CAIX, pimonidazole) is “strong correlation; also recorded: co-localized with the GLUT1 and pimonidazole hypoxia markers”. On to `C#CCN(CCCCCC(F)/C=C/[N+]([O-])(CC)CC)C(=O)c1ccc(C2=c3cc4c(cc3[Si](C)(C)c3cc5c(cc32)CCN5C)=[N+](C)CC4)c(C)c1` (stereo not drawn) [probe 42, Si700-enamine N-oxide], for which the “co-localization with pimonidazole in tumor tissue slices” value (tumor of mouse imaged by NIR probe, CuAAC fluorescent labeling) is recorded as “robust co-localization”.
